Measurements from patent publication US11844794B2, “Pharmaceutical compositions” (ADEPTIO PHARMACEUTICALS LIMITED, priority 2017, dated 2023).
≈ marks a conversion by molar mass, not a printed value.

Tests used:
[1] = pharmacokinetics after oral administration to male Beagle dogs; assay type: in vivo, Beagle dog
Protocol: Doses were administered orally, via gavage, at a dose volume of 2.00 mL/kg yielding the target dose level of 1.50 mg/kg. Following dosing, 10 mL of tap water was flushed down the gavage to ensure the entire dose was dispensed. Following dosing over four sessions each with one of the test materials, serial whole blood samples (circa. 1.3 mL) were collected from a jugular vein then placed into K2 EDTA treated tubes pre-dose and then 0.25, 0.50, 1, 2, 3, 4, 6, 12 and 24 hours post dose. Blood samples were placed immediately on a cool-block before being centrifuged within 15 minutes at 3,000×g, 10 minutes, 4° C. and resultant plasma drawn off. […] Doses were administered orally, via gavage, at a dose volume of 2.00 mL/kg yielding the target dose level of 1.50 mg/kg. Following dosing, 10 mL of tap water was flushed down the gavage to ensure the entire dose was dispensed. Following dosing over four sessions each with one of the test materials, serial whole blood samples (circa. 1.3 mL) were collected from a jugular vein then placed into K2 EDTA treated tubes pre-dose and then 0.25, 0.50, 1, 2, 3, 4, 6, 12 and 24 hours post dose. Blood samples were placed immediately on a cool-block before being centrifuged within 15 minutes at 3,000×g, 10 minutes, 4° C. and resultant plasma drawn off.

amphetamine-induced rats = experiment: amphetamine-induced locomotor activity, open field test; assay type: in vivo, rat
Protocol: (§1) All animal experiments were carried out according to the National Institute of Health (NIH) guidelines for the care and use of laboratory animals, and approved by the National Animal Experiment Board, Finland. Male CD (Charles River Laboratories, Germany) at weight range of 200-250 g (165-200 g upon arrival) were used for the experiments. Animals were housed at a standard temperature (22±1° C.) and in a light-controlled environment (lights on from 7 am to 8 pm) with ad libitum access to food and water.
(§2) Locomotor activity of the rats was tested in open field arena. The open field test was performed during the rat light cycle and under a normal lighting evenly distributed to the test chambers. The paths of the rats were recorded by activity monitor (Med. Associates Inc.).
(§3) Dosing the vehicle, vehicle-amphetamine, (+)-α-DHTBZ or risperidone was done prior to LMA test. The rats were placed in the centre of the arena, and the path was recorded for 60 minutes.
Animals were grouped as follows: • Group 1: 10 rats treated with Vehicle (t=0 min) and Vehicle (t=30 min) • Group 2: 10 rats treated with Vehicle (t=0 min) and Amphetamine (t=30 min) • Group 3: 10 rats treated with (+)-α-DHTBZ 0.5 mg/kg (t=0 min) and Amphetamine (t=30 min) • Group 4: 10 rats treated with (+)-α-DHTBZ 1 mg/kg (t=0 min) and Amphetamine (t=30 min) • Group 5: 10 rats treated with (+)-α-DHTBZ 1.5 mg/kg (t=0 min) and Amphetamine (t=30 min) • Group 6: 10 rats treated with (+)-α-DHTBZ 2 mg/kg (t=0 min) and Amphetamine (t=30 min) • Group 7: 10 rats treated with risperidone 1 mg/kg (t=0 min) and Amphetamine (t=30 min)
(§4) Rats dosed with either vehicle, (+)-α-DHTBZ 0.5 mg/kg, (+)-α-DHTBZ 1 mg/kg, (+)-α-DHTBZ 1.5 mg/kg, (+)-α-DHTBZ 2 mg/kg or Risperidone 1 mg/kg were subjected to LMA testing first for 30 min and then for 60 minutes after vehicle or amphetamine challenge. Resulting locomotor activity was evaluated in 3 min bins and as a total over the testing period.
as §4, with “stereotypic” for “locomotor”, “period. […]” for “period.”

[2] = tested on: non-amphetamine induced rats; experiment: locomotor activity in rats without amphetamine induction, open field test; assay type: in vivo, rat; conditions: Study 3, non-induced rats, 2.5 mg/kg or 5 mg/kg
Protocol: as §1, §2, §3
Animals were grouped as follows: • Group 1: 10 rats treated with Vehicle • Group 2: 10 rats treated with (+)-α-DHTBZ 2.5 mg/kg • Group 3: 10 rats treated with (+)-α-DHTBZ 5 mg/kg • Group 4: 10 rats treated with risperidone 1 mg/kg

[3] = equilibrium aqueous solubility by HPLC; assay type: physicochemical; conditions: thermodynamic from solid; water, measured by HPLC; read-out: equilibrium solubility in water
Protocol: The aqueous solubilities of salts were measured by an equilibrium method in which an amount of the salt was weighed into a 2 ml vial equipped with a magnetic stirrer bar and water added. In cases where complete dissolution was observed, more material was added until the sample was exhausted. The slurry was then stirred for seven days before isolating the solids by centrifuge-filtration. The solids were analysed by XRPD and the filtrates were analysed by HPLC to determine the amount of (+)-alpha-dihydrotetrabenazine salt in solution. The solubilities were calculated against a calibration curve established for a (+)-alpha-dihydrotetrabenazine sample of known concentration.

[4] = male Beagle dogs, oral 1.50 mg/kg (freebase equivalent)
[5] = Study 1, all the tested doses (0.5, 1, 1.5 and 2 mg/kg)

COc1cc2c(cc1OC)[C@H]1C[C@@H](O)[C@H](CC(C)C)CN1CC2 [(+)-α-dihydrotetrabenazine, (2R,3R,11bR)-3-isobutyl-9,10-dimethoxy-1,3,4,6,7,11b-hexahydro-2H-pyrido[2,1,a]isoquinolin-2-01]
Cmax ([1]; dog, plasma, 1.5 mg/kg, male Beagle dogs, oral 1.50 mg/kg (freebase equivalent)): 58.7 ng/mL
mean exposure [1, 4]: 64.26 ng·mL·h
time post dose at which Cmax was observed [1, 4]: 0.25 h
concentration at 6 h ([1]; male, Beagle (HsdRcc:DOBE), dog, plasma, po, 1.5 mg/kg, Plasma concentration of (+)-α-dihydrotetrabenazine, Male 2, oral 1.50 mg/kg (freebase equivalent), 6 h, BLQ = <0.10 ng/mL): 0.113 ng/mL
total stereotypic behaviour compared to vehicle-vehicle group (amphetamine-induced rats; Study 1, 0.5 mg/kg plus amphetamine, male CD rats): significantly different
total stereotypic behaviour compared to vehicle-amphetamine group (amphetamine-induced rats; Study 1, 0.5 mg/kg, male CD rats): significantly different
total stereotypic behaviour compared to vehicle-amphetamine group (amphetamine-induced rats; Study 1, 1 mg/kg, male CD rats): significantly different
total stereotypic behaviour compared to vehicle-vehicle group (amphetamine-induced rats; Study 1, 1.5 mg/kg plus amphetamine, male CD rats): significantly different
total stereotypic behaviour compared to vehicle-amphetamine group (amphetamine-induced rats; Study 1, 1.5 mg/kg, male CD rats): significantly different
total stereotypic behaviour compared to vehicle-amphetamine group (amphetamine-induced rats; Study 1, 2 mg/kg, male CD rats): significantly different
locomotor activity compared to vehicle-amphetamine group (amphetamine-induced rats; [5]): lower locomotor activity
stereotypic behaviour compared to vehicle-amphetamine group (amphetamine-induced rats; [5]): reduced stereotypic behaviour
effect suggested by both measured parameters (amphetamine-induced rats; Study 1, locomotor activity and stereotypic behaviour): sedative effect similar to risperidone
total stereotypic behaviour compared to vehicle-amphetamine group (amphetamine-induced rats; Study 2, 0.1 mg/kg, male CD rats): significantly different
total stereotypic behaviour compared to vehicle-amphetamine group (amphetamine-induced rats; Study 2, 0.25 mg/kg, male CD rats): significantly different
total distance travelled compared to vehicle-amphetamine group (amphetamine-induced rats; Study 2, 0.25 mg/kg, male CD rats, listed as (+)-α-DHTBZ): lower locomotor activity
stereotypic behaviour compared to vehicle-amphetamine group (amphetamine-induced rats; Study 2, both the tested doses (0.1 and 0.25 mg/kg)): reduced stereotypic behaviour
stereotypic behaviour versus vehicle [2]: comparable
total movement versus vehicle [2]: comparable
solubility thermodynamic at 7 days [3]: 127 µg/mL (≈ 398 µM)
